From ChEMBL document CHEMBL5055668 (J Med Chem, 2021) come the findings set out here.

As a reminder, the IC50 is the point on the concentration scale where inhibition reaches its midpoint. A high value points to a need for much substance.

Active and inactive are the calls of the source. The rule behind the calls is not given here.

The target of the first assay is T1, Macrophage colony-stimulating factor 1 receptor (Mus musculus) (UniProt P09581).
T1 sequence (whole entry): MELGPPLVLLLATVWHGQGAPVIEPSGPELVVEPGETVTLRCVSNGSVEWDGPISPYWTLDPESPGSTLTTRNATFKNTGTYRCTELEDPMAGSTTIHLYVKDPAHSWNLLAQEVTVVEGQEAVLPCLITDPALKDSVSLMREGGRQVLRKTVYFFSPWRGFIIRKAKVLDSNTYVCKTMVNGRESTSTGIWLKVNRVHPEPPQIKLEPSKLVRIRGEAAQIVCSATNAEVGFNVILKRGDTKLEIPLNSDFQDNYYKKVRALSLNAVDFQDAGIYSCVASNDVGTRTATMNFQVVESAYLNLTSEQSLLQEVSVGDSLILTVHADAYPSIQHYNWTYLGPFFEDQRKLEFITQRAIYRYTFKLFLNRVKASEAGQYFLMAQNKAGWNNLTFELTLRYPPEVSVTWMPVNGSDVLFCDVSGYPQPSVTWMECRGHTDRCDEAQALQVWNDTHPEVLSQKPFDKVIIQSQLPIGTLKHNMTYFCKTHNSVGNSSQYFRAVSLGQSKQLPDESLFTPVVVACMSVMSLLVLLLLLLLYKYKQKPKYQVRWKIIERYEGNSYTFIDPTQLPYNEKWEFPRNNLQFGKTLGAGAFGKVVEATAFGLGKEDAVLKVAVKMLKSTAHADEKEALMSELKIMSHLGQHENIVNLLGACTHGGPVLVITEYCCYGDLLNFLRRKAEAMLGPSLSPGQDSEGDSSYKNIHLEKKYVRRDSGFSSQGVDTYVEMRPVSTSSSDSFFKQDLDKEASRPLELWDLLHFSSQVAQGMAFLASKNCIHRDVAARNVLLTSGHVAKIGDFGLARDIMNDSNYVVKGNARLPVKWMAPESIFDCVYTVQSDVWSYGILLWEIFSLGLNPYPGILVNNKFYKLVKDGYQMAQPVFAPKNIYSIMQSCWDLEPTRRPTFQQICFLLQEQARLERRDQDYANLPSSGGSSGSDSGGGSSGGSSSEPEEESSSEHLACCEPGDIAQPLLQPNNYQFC
Put plainly: Inhibition of CSF-1R signaling pathway in C57BL/6 mouse BMDM cells assessed as reduction in M-CSF induced CSF-1R phosphorylation at 100 nM preincubated for 12 hrs followed by M-CSF stimulation for 30 mins by Western blot analysis. In kind it is cell-based.
Details: not given
On to `FC(F)(F)c1ccc(CNc2ccc(Cc3c[nH]c4ncc(Cl)cc34)cn2)cn1` [PEXIDARTINIB], for which the inhibition result is “Active”.
On to `Cc1[nH]c(/C=C2\C(=O)Nc3cc(NC(=O)Nc4cc(C(C)(C)C)on4)ccc32)c(C)c1NC(=O)[C@@H]1CCNC1`, for which the inhibition entry was “Active”.
For the molecule `Cc1[nH]c(/C=C2\C(=O)Nc3cc(NC(=O)Nc4cc(C(C)(C)C)on4)ccc32)c(C)c1NC(=O)C1CCCNC1` (configuration not stated), the inhibition entry is “Active”.
For the molecule `CCNCCC(=O)Nc1c(C)[nH]c(/C=C2\C(=O)Nc3cc(NC(=O)Nc4cc(C(C)(C)C)on4)ccc32)c1C`, the inhibition result was “Active”.
Still for that read-out and setting: for `Cc1[nH]c(/C=C2\C(=O)Nc3cc(NC(=O)Nc4cc(C(C)(C)C)on4)ccc32)c(C)c1NC(=O)CCN1CCCCC1` the value was “Active”.
As to `Cc1[nH]c(/C=C2\C(=O)Nc3cc(NC(=O)Nc4cc(C(C)(C)C)on4)ccc32)c(C)c1NC(=O)C1CCCCN1` (configuration not stated), the inhibition entry was “Active”.
`CCCNCCC(=O)Nc1c(C)[nH]c(/C=C2\C(=O)Nc3cc(NC(=O)Nc4cc(C(C)(C)C)on4)ccc32)c1C`: the inhibition entry is “Active”.
As for `Cc1[nH]c(/C=C2\C(=O)Nc3cc(NC(=O)Nc4cc(C(C)(C)C)on4)ccc32)c(C)c1NC(=O)CCN1CCN(C)CC1`, the inhibition entry is “Active”.
Turning to `Cc1[nH]c(/C=C2\C(=O)Nc3cc(NC(=O)Nc4cc(C(C)(C)C)on4)ccc32)c(C)c1NC(=O)CCN1CCCC1`, the inhibition result is “Active”.
With `Cc1[nH]c(/C=C2\C(=O)Nc3cc(NC(=O)Nc4cc(C(C)(C)C)on4)ccc32)c(C)c1NC(=O)CCN(C)C`, the inhibition result was “Active”.

In a further assay the test system is MC-38. Put plainly: Antitumor activity against mouse MC38 cells allografted in C57BL6 mouse assessed as tumor growth inhibition at 20 mg/kg, po administered daily for 2 weeks by caliper method. Conditions: MC-38, po, 336 h, read-out: TGI.
Consider `FC(F)(F)c1ccc(CNc2ccc(Cc3c[nH]c4ncc(Cl)cc34)cn2)cn1` [PEXIDARTINIB], for which the inhibition in vivo at 20 mg/kg is 40.3%.

The target of another assay is Macrophage colony-stimulating factor 1 receptor (Homo sapiens, UniProt P07333).
Macrophage colony-stimulating factor 1 receptor, sequence (P07333 whole entry): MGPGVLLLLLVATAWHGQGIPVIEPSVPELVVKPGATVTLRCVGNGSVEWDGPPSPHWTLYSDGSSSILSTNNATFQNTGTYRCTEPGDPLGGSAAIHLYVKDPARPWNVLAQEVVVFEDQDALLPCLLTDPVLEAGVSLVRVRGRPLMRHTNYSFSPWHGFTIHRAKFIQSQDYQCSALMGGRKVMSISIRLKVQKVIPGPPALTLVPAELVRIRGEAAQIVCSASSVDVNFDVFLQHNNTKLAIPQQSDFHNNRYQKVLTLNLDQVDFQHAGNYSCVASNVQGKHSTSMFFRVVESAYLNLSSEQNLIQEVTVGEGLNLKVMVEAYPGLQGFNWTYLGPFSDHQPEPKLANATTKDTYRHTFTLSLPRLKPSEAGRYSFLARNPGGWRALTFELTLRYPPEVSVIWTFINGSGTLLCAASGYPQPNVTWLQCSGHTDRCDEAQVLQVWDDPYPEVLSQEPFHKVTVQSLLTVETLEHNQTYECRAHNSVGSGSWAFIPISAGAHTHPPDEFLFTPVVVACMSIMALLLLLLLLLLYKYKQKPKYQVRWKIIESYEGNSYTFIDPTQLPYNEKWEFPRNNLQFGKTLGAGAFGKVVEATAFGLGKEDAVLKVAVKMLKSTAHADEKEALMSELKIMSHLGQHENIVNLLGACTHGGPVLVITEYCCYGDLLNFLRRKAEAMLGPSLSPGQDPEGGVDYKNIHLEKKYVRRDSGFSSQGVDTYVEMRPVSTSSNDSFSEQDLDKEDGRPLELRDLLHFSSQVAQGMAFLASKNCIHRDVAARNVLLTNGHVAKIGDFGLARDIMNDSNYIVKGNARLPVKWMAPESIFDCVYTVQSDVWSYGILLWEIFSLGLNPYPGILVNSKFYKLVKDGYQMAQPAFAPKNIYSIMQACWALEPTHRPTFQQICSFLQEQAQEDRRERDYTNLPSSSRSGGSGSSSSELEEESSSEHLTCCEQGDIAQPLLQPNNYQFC
Details: not given
In the case of `CCN(CC)CCNC(=O)c1c(C)[nH]c(/C=C2\C(=O)Nc3cc(NC(=O)NC4CCN(C)CC4)ccc32)c1C`, the IC50 was > 3 µM.
